≈ marks a conversion by molar mass, not a printed value.
How the values were obtained:
[1] = system: BJ-derived cell lines (BJeLR, DRD, BJeHLT, BJeH); test: potency and genotype-selective lethality in BJ-derived isogenic cell lines; assay type: cell-based, human; details: for potency in HRAS^G12V-overexpressing cell lines: BJeLR, DRD cells
[2] = metabolic stability in mouse liver microsomes; assay type: in vitro ADME; details: for metabolic stability: mouse liver microsomes, 37 °C, pH 7.4, NADPH-generating system; for half-life: mouse, liver microsomes, pH 7.4
[3] = water solubility; assay type: physicochemical
[4] = system: HT-1080 human fibrosarcoma cell line; test: growth inhibition of HT-1080 cells; assay type: cell-based; details: for growth inhibition: HT-1080 cells, 48 h treatment
[5] = stability in mouse plasma; assay type: in vitro ADME; details: 500 ng/mL, 37 °C, up until 120 min
[6] = system: NRAS mutant human HT-1080 fibrosarcoma; details: nude mice; cited from earlier work

SMILES	metabolic stability [2]	potency in HRAS^G12V-overexpressing cell lines [1]	half-life [2] [min]	also measured
CC(C)Oc1ccc(C(=O)CF)cc1-n1c(CN2CCN(C(=O)COc3ccc(Cl)cc3)CC2)nc2ccccc2c1=O [FKE, α-fluoro ketone erastin]	medium to poor metabolic stability	low nanomolar potencies	–	–
CCOc1ccccc1-n1c(C(C)N2CCN(C(=O)COc3ccc(Cl)cc3)CC2)nc2ccccc2c1=O (centres unmarked) [Erastin, erastin]	–	–	–	solubility [3]: 86 µM (≈ 47 µg/mL)
CC(=O)c1ccc(OC(C)C)c(-n2c(CN3CCN(C(=O)COc4ccc(Cl)cc4)CC3)nc3ccccc3c2=O)c1 [KE]	–	low nanomolar potencies	< 5	–
CC(C)Oc1ccc(C(=O)Cn2ccnc2)cc1-n1c(CN2CCN(C(=O)COc3ccc(Cl)cc3)CC2)nc2ccccc2c1=O [IKE, imidazole ketone erastin]	–	low nanomolar potencies	–	selective lethality to BJeLR and DRD cells compared to BJeH and BJeHLT cells ([1]; 4 isogenic BJ-derived cell lines): selective lethality; growth inhibition [4]: complete growth inhibition; GI50 ([4]; Homo sapiens, HT-1080, 48 h): 310 nM; stability in mouse plasma [5]: remained stable
C=CCN1CCN(CC(=O)c2ccc(OC(C)C)c(-n3c(CN4CCN(C(=O)COc5ccc(Cl)cc5)CC4)nc4ccccc4c3=O)c2)CC1 [APKE, N-allylpiperazine ketone erastin]	medium to poor metabolic stability	–	–	–
CC(C)Oc1ccc(CN2CCNCC2)cc1-n1c(CN2CCN(C(=O)COc3ccc(Cl)cc3)CC2)nc2ccccc2c1=O [PE, piperazine erastin]	–	–	–	effect on the growth of already established tumors [6]: limited effect
CC(C)Oc1ccc(C=O)cc1-n1c(CN2CCN(C(=O)COc3ccc(Cl)cc3)CC2)nc2ccccc2c1=O [AE, aldehyde erastin, reference compound]	–	low nanomolar potencies	< 5	–
CC(C)Oc1ccc(C(=O)CN2CCNCC2)cc1-n1c(CN2CCN(C(=O)COc3ccc(Cl)cc3)CC2)nc2ccccc2c1=O [PKE, piperazine ketone erastin]	–	low nanomolar potencies	> 90	growth inhibition [4]: complete growth inhibition; stability in mouse plasma [5]: remained stable

More lines, main results first:

metabolic stability [2]	SMILES	potency in HRAS^G12V-overexpressing cell lines [1]	half-life [2] [min]	also measured
medium to poor metabolic stability	CC(C)Oc1ccc(C(=O)CN2CCN(C)CC2)cc1-n1c(CN2CCN(C(=O)COc3ccc(Cl)cc3)CC2)nc2ccccc2c1=O [MPKE, N-methylpiperazine ketone erastin]	–	–	–
medium to poor metabolic stability	COc1ccc(CN2CCN(CC(=O)c3ccc(OC(C)C)c(-n4c(CN5CCN(C(=O)COc6ccc(Cl)cc6)CC5)nc5ccccc5c4=O)c3)CC2)cc1 [PMB-PKE, N-p-methoxybenzylpiperazine ketone erastin]	–	–	–
